The results in this text go back to patent US9359371B2, “Bicyclic substituted pyrimidine compounds” (Xuanzhu Pharma Co., Ltd., priority 2012, dated 2016).

pIC50: −log10 of the molar value. Read-outs that look alike come from different tables or passages of the source.

The target of data set [1] is bovine retinal PDE-6 (Bos taurus (Bovine), UniProt P11541+P23439). Put plainly: PDE-6 enzyme assay, [3H]cGMP. The format is biochemical. How it is done:
(§1) Experiment 3: Measurement of Enzyme Activity on PDE-6 Enzyme In Vitro
(§2) Source of enzyme: PDE-6, bovine retinal PDE-6
(§3) Method: The test compound or solvent was incubated at 25° C. for 15 min with enzyme solution (0.2 μg/mL) in Tris-HCl buffer of pH 7.5. 100 μM cGMP and 0.03 μM [^3H] cGMP were then added to activate the reaction. The mixture was incubated for 20 min. The reaction was stopped at 100° C. By addition of snake venom nucleotidase, the product [^3H] GMP was converted into [^3H] Guanosine, which was separated with AG1-X2 resin. The amount of [^3H] Guanosine was measured.

In data set [2] the test system is bovine retinal PDE-6. Put plainly: PDE-6 enzyme assay, [3H]cGMP. The format is biochemical. The method, then: as §1, §2, §3
Data set [3] can be described thus: Pharmacokinetics (PK) in SD rats. Conditions: rat, 1 mg/kg. The format is in vivo.
A further data set deals with hERG channel (Homo sapiens (Human), UniProt Q12809). Put plainly: hERG potassium channel whole-cell patch clamp on CHO-K1 cell line. The source says: Experiment 8: Detection of Inhibitory Effect of the Compounds of the Present Invention on hERG Potassium Channel by the Patch Clamp Method
hERG channel, sequence (Q12809 whole entry): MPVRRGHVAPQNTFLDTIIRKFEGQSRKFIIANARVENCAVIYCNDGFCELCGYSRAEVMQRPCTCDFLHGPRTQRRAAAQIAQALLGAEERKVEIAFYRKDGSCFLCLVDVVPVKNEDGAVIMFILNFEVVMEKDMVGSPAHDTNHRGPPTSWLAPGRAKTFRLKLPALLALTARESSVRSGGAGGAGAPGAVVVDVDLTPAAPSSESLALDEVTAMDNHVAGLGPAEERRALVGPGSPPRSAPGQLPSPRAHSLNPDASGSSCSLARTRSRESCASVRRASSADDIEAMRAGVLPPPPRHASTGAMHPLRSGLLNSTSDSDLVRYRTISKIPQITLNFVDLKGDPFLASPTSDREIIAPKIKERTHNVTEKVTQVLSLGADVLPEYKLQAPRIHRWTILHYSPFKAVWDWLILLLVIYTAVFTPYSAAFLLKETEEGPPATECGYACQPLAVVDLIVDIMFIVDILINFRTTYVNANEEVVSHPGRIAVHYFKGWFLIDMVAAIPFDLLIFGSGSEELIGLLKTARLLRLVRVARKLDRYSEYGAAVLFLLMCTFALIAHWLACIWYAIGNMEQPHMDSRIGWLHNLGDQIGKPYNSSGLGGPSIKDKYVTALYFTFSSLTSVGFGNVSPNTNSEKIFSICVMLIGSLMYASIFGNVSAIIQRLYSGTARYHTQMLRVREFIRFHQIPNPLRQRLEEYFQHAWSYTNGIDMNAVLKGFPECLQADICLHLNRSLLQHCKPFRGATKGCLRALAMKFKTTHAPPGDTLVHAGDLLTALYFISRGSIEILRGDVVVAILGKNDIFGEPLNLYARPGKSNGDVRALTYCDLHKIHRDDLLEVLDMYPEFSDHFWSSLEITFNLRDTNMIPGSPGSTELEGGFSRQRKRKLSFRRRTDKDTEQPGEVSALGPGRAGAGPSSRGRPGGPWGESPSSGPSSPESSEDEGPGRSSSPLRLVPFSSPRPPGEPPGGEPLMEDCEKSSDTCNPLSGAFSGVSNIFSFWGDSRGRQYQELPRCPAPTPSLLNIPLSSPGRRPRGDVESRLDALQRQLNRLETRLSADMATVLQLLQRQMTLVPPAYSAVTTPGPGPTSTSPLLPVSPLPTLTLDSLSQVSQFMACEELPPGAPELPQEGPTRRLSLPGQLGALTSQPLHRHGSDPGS
Rapidly activated human delayed rectifying outward potassium current (IKr) is mainly mediated by hERG ion channel and is involved in repolarization of human cardiac muscle cell. Clinically, blocking of the current by a drug is the main cause of QT interval prolongation syndrome, acute arrhythmia and even sudden death. The main purpose of the experiment is to test the blocking effect of the compounds of the present invention on hERG channel, and to determine the half maximal inhibitory concentration (IC50) of the compounds.
The experiment mainly included: (1) recording hERG current by patch clamp technique on CHO-K1 cell line which stably expressed hERG channel; (2) calculating the Inhibition rate of each concentration according to hERG tail current; (3) testing each compound at 5 concentrations to calculate IC50; (4) testing 2 cells at each concentration; (5) a positive control.
The structures and synthesis of Compound 88 (WO-88) and Compound 93 (WO-93) as disclosed in WO200119802A were described in Example 55 and Example 56.
Drug for positive control: Amitriptyline hydrochloride (Sigma-Aldrich, an international standard blocker for hERG channel)
Pippette Solution (in mM): KCl 120, KOH 31.25, CaCl2 5.374, MgCl2 1.75, Ethylene glycol-bis(β-aminoethyl ether)-N,N,N′,N′-tetraacetic acid (EGTA) 10, HEPES 10, Na2-ATP 4, adjusted to a pH of 7.2 with 1N potassium hydroxide; adjusted to an osmotic pressure of 280-290 mOsm; preserved at −20° C. after filtration.
Preparation of compounds: Some of the compounds of the present invention and Amitriptyline hydrochloride as the positive control drug were separately dissolved in 100% DMSO (Merck, 61850125001730), then prepared into stock solutions of 30 mM. Before the experiment, the above stock solutions were diluted with DMSO to a concentration of 1000-fold of the experimental concentration. Then the diluted solutions were further diluted with extracellular solution by 1:1000 to the required experimental concentration. The final concentration of DMSO in the extracellular solution was kept as 0.1%.
Stable cell line CHO-hERG was purchased from AVIVA Company. The hERG current on the cell line was recorded. For the purpose of quality control, the smallest seal resistance was no less than 500 MΩ, and the hERG current was no less than 0.4 nA.
The hERG current was recorded by a whole-cell patch clamp technique. Cell suspension was added into a 35-mm culture dish. The culture dish was placed on the objective table of an inverted microscope. Upon cell attachment, perfusion was conducted with the extracellular solution at a flow rate of 1-2 mL/min.
Glass microelectrode with the pipette tip resistance of 2-5 MΩ was controlled by a microelectrode puller via a two-step process. After the whole-cell record was set up, the clamp potential was kept at −80 mV. The cell was depolarized to +60 mV by applying a voltage stimulus, and then repolarized to −50 mV to obtain the hERG tail current. Recordation was conducted after the current was stable. The extracellular perfusion was started from the lowest concentration, with 5-10 min for each concentration until the current was stable, and then conducted with the next concentration.
Stimulus payment and signal collection were performed by A/D-D/A conversion using Digidata 1440 (Molecular Devices) and pCLAMP software (Version 10.2, Molecular Devices). Signal amplification was performed on a patch clamp amplifier (Multiclamp 700B, Molecular Devices), with a filter of 1 KHz. Further data analysis and curve fitting were conducted by Clampfit (version 10.2, Molecular Devices) and Prism. The data were presented as mean value±standard deviation.
In the process of data analysis, the peak value and the baseline of the tail current were corrected when determining the blocking effect on hERG.
A general note: The hERG channel carries a current that helps repolarise heart muscle cells.

[4] abbreviates: SD, plasma, po, intragastric administration.
Setting [5] is: SD, plasma, intravenous injection.

bovine retinal PDE-6 (Bos taurus (Bovine), UniProt P11541+P23439), sequence (P11541 whole entry, looked up): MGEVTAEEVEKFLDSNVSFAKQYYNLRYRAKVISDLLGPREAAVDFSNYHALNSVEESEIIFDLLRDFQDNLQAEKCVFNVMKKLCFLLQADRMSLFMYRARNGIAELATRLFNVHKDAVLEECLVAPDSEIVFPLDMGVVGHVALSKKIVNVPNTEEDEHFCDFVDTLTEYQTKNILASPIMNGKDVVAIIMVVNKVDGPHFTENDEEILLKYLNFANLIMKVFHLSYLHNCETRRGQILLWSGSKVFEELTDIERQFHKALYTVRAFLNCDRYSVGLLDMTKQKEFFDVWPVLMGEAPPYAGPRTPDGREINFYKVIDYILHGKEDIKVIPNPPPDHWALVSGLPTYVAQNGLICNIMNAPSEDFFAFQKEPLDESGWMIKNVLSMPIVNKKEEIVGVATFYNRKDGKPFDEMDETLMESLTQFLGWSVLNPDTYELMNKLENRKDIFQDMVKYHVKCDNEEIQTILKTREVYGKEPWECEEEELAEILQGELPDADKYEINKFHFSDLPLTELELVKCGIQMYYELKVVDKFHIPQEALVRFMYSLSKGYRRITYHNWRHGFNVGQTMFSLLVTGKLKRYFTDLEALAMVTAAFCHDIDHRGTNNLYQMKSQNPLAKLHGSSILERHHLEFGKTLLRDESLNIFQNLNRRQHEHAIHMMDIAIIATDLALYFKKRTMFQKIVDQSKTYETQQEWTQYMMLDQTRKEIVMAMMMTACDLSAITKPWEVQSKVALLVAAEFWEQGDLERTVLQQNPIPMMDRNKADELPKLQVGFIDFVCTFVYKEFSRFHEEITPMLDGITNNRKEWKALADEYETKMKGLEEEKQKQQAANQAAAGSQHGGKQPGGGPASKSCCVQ
bovine retinal PDE-6 (Bos taurus (Bovine), UniProt P11541+P23439), sequence (P23439 whole entry, looked up): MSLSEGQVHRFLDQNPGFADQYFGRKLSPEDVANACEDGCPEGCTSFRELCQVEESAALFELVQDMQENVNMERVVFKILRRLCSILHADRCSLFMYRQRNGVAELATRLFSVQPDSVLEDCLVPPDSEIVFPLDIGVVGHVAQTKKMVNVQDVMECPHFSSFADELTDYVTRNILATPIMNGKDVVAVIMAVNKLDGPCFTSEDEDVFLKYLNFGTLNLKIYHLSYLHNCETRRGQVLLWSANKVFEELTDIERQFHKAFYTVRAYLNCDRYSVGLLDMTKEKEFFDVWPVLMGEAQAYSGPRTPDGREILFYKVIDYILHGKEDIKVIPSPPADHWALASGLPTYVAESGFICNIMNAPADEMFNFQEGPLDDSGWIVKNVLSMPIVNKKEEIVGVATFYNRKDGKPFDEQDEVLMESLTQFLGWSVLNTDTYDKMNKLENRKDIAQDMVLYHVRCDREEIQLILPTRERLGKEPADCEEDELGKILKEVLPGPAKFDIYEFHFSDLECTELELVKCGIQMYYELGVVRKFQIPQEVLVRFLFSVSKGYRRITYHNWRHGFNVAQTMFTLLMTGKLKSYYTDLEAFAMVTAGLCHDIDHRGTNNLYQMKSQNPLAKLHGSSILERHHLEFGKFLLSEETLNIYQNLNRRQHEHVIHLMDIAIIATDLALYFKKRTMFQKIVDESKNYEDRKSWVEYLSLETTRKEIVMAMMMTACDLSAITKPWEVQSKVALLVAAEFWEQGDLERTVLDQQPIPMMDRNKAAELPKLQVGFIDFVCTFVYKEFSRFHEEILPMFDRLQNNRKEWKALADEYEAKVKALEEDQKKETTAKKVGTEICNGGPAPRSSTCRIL

For the molecule `COc1ccc(CNc2nc(N3CC4CC4C3)ncc2C(=O)N[C@H]2CC[C@H](O)CC2)cc1Cl` (stereo partly drawn) [Compound 11, 2-(3-azabicyclo[3.1.0]hexan-3-yl)-4-((3-chloro-4-methoxybenzyl)amino)-N-(trans-4-hydroxycyclohexyl)pyrimidine-5-formamide], at bovine retinal PDE-6 [1] (Table 3, read-out: IC50 on PDE-6), the pIC50 (commonly −log10 of the IC50, conventionally taken in molar units) was 7.21. Also, the IC50 (in general, the midpoint of a concentration-inhibition curve) on bovine retinal PDE-6 [1] (Table 4-1, read-out: PDE-6 (IC50 nM)) worked out at 61 nM. Besides, the “Selectivity (PDE-6/PDE-5)” value in the data set on bovine retinal PDE-6 [2] (IC50 for PDE-6/IC50 for PDE-5) is 148. Moreover, the “selectivity on PDE-5 enzyme versus PDE-6 (in words)” value in the data set with bovine retinal PDE-6 [2] (selectivity >70 called high) is given as “higher selectivity on PDE-5 enzyme than to PDE-6”. Moreover, in data set [3] (setting [4]), the total exposure AUC(0-inf) (usually total exposure, with the tail of the curve extrapolated) was 604 ng·h/mL; the highest level (Cmax) was 133 ng/mL; the Tmax (usually the time at which the peak concentration occurs) amounted to 1 h; the half-life (in general, the time needed for the level to fall by half in the phase considered) is 2.03 h. The bioavailability (commonly dose-corrected exposure relative to a reference, in per cent) in data set [3] (SD, plasma, po, intragastric administration, read-out: F % (absolute bioavailability)) worked out at 70.4%. In addition, in data set [3] (setting [5]), the AUC(0-inf) came out at 858 ng·h/mL and the half-life was 2.4 h. In addition, in data set [3] (intragastric administration), the AUCinf entry is given as “higher exposure quality (AUC)”; the “F % (absolute bioavailability)” value was “higher exposure quality (AUC) and bioavailability than Compound WO-88”. Besides, in data set [3] (intravenous injection), the AUCinf entry is given as “higher exposure quality (AUC)”, the Cl_obs came to 19.7 mL/min/kg, the T1/2 result is “longer half-life” and the Vss_obs came to 3.44 L/kg. On hERG channel, this molecule had a pIC50 of under 4.52. The “inhibitory effect on hERG channel (in words)” value at hERG channel (human, CHO-K1 cells stably expressing hERG channel, pH 7.4) is “none of Compound 3, 11 and 50 of the present invention had a significant inhibitory effect”.
